According to ChEMBL document CHEMBL3045171, “Design and synthesis of some pyrazole derivatives of expected anti-inflammatory and analgesic activities” (Med Chem Res, 2012):

Key:
[1] = Toxicity in ip dosed Mus musculus (mouse) after 24 hr; type: organism-based; details: in vivo
Rattus norvegicus [2] = assay: Anti-inflammatory activity in Rattus norvegicus albino (rat) assessed as inhibition of carrageenan-induced paw edema at 25 mg/kg, ip pretreated 30 min prior to carrageenan administration measured 4 hr after carrageenan challenge (reference value: 0%); type: functional; details: route intraperitoneal
Rattus norvegicus [3] = assay: Anti-inflammatory activity in Rattus norvegicus albino (rat) assessed as inhibition of carrageenan-induced paw edema at 25 mg/kg, ip pretreated 30 min prior to carrageenan administration measured 3 hr after carrageenan challenge (reference value: 0%); type: functional; details: route intraperitoneal
Rattus norvegicus [4] = assay: Anti-inflammatory activity in Rattus norvegicus albino (rat) assessed as inhibition of carrageenan-induced paw edema at 25 mg/kg, ip pretreated 30 min prior to carrageenan administration measured 2 hr after carrageenan challenge (reference value: 0%); type: functional; details: route intraperitoneal
Rattus norvegicus [5] = assay: Anti-inflammatory activity in Rattus norvegicus albino (rat) assessed as inhibition of carrageenan-induced paw edema at 25 mg/kg, ip pretreated 30 min prior to carrageenan administration measured 1 hr after carrageenan challenge (reference value: 0%); type: functional; details: route intraperitoneal
Mus musculus [6] = assay: Analgesic activity in Mus musculus (mouse) assessed as inhibition of p-benzoquinone-induced writhing at 25 mg/kg, ip pretreated 30 min prior to carrageenan administration measured 4 hr after carrageenan challenge (reference value: 0%); type: functional; details: route intraperitoneal
Mus musculus [7] = assay: Analgesic activity in Mus musculus (mouse) assessed as inhibition of p-benzoquinone-induced writhing at 25 mg/kg, ip pretreated 30 min prior to carrageenan administration measured 3 hr after carrageenan challenge (reference value: 0%); type: functional; details: route intraperitoneal
Mus musculus [8] = assay: Analgesic activity in Mus musculus (mouse) assessed as inhibition of p-benzoquinone-induced writhing at 25 mg/kg, ip pretreated 30 min prior to carrageenan administration measured 2 hr after carrageenan challenge (reference value: 0%); type: functional; details: route intraperitoneal
Mus musculus [9] = assay: Analgesic activity in Mus musculus (mouse) assessed as inhibition of p-benzoquinone-induced writhing at 25 mg/kg, ip pretreated 30 min prior to carrageenan administration measured 1 hr after carrageenan challenge (reference value: 0%); type: functional; details: route intraperitoneal
Rattus norvegicus [10] = assay: Gastrointestinal toxicity in Rattus norvegicus albino (rat) assessed as ulcer index at 25 mg/kg, po for 3 days measured 2 hr after last dose; type: organism-based; set-up: dose 25 mg/kg, route oral; details: in vivo

SMILES	LD50 at 24 h [1] [mg/kg]	inhibition in vivo at 25 mg/kg (Rattus norvegicus [2]) [%]	inhibition in vivo at 25 mg/kg (Rattus norvegicus [3]) [%]	inhibition in vivo at 25 mg/kg (Rattus norvegicus [4]) [%]	inhibition in vivo at 25 mg/kg (Rattus norvegicus [5]) [%]	inhibition in vivo at 25 mg/kg (Mus musculus [6]) [%]	inhibition in vivo at 25 mg/kg (Mus musculus [7]) [%]	inhibition in vivo at 25 mg/kg (Mus musculus [8]) [%]	inhibition in vivo at 25 mg/kg (Mus musculus [9]) [%]	UI (Rattus norvegicus [10])
CCOC(=O)c1nn(-c2ccc(Cl)cc2)c(-c2ccc(OC)cc2OC)c1-c1ccccc1	278	15.4	15	12.7	6.89	–	–	–	–	–
COc1ccc(C2=NN(C(=S)NC(=O)c3ccc(Cl)cc3)CC2c2ccccc2)c(OC)c1 (stereo unspecified)	292	1.92	1.43	0	0	–	–	–	–	–
COc1ccc(C2=NN(C(=S)NC(=O)c3ccc(Cl)cc3)CC2C)c(OC)c1 (stereo unspecified)	232	1.43	1.94	0	0	–	–	–	–	–
COc1ccc(C(=O)Cc2ccccc2)c(OC)c1	278	15.9	15	11.2	5.91	–	–	–	–	–
COc1ccc(C2=NN(C(=O)NS(=O)(=O)c3ccc(Cl)cc3)CC2C)c(OC)c1 (stereo unspecified)	248	18.8	16.4	14.6	12.2	–	–	–	–	–
COc1ccc(-c2c(C)c(C(=O)O)nn2-c2ccc(Cl)cc2)c(OC)c1	232	22.7	22.8	28.4	24.7	0	20	20	40	–
CCOC(=O)C(=O)C(C(=O)c1ccc(OC)cc1OC)c1ccccc1 (stereo unspecified)	278	21.2	20.8	20	15.1	–	–	–	–	–
Cc1ccc(-c2cc(C(F)(F)F)nn2-c2ccc(S(N)(=O)=O)cc2)cc1 [CELECOXIB]	250	62.8	64	61.1	54.2	80	80	100	100	8.4
COc1ccc(-c2c(-c3ccccc3)c(C(=O)O)nn2-c2ccc(Cl)cc2)c(OC)c1	232	42.5	45.5	42	37	20	40	60	80	11.56
CCOC(=O)c1nn(-c2ccccc2)c(-c2ccc(OC)cc2OC)c1C	278	5.77	5.81	4.86	4.9	–	–	–	–	–
COc1ccc(C2=NN(C(=O)NS(=O)(=O)c3ccc(C)cc3)CC2c2ccccc2)c(OC)c1 (stereo unspecified)	292	7.21	4.83	6.33	4.9	–	–	–	–	–
CC(C)Cc1ccc(C(C)C(=O)O)cc1 (stereo unspecified) [IBUPROFEN]	–	76.1	66.7	63.5	55.4	–	–	–	–	22.92
C=C(C(=O)c1ccc(OC)cc1OC)c1ccccc1	232	2.9	1.92	1.43	0	–	–	–	–	–
CCOC(=O)c1nn(-c2ccc(Cl)cc2)c(-c2ccc(OC)cc2OC)c1C	248	2.38	2.22	1.43	0	0	20	40	40	–
CCOC(=O)c1nn(-c2ccccc2)c(-c2ccc(OC)cc2OC)c1-c1ccccc1	292	20.2	20.8	20.5	17.7	–	–	–	–	–
COc1ccc(C2=NN(C(=O)NS(=O)(=O)c3ccc(Cl)cc3)CC2c2ccccc2)c(OC)c1 (stereo unspecified)	248	23.6	25.7	27.3	24.1	0	20	40	40	–
COc1ccc(C2=NNCC2c2ccccc2)c(OC)c1 (stereo unspecified)	278	1.92	1.8	0	0	–	–	–	–	–
COc1ccc(C2=NNCC2C)c(OC)c1 (stereo unspecified)	292	44.4	45.1	44.5	40.4	20	40	60	80	11.67
COc1ccc(C2=NN(C(=O)NS(=O)(=O)c3ccc(C)cc3)CC2C)c(OC)c1 (stereo unspecified)	232	25.1	25.2	27.3	23.7	0	0	20	20	–
CCOC(=O)C(=O)C(C)C(=O)c1ccc(OC)cc1OC (stereo unspecified)	278	24.6	26.1	27.2	23.7	–	–	–	–	–
C=C(C)C(=O)c1ccc(OC)cc1OC	278	32.3	31.5	29.8	23.7	0	0	20	20	15.24
